How the values were obtained:
HIV-1 integrase (IN) [1] = target: T1, HIV-1 integrase (IN) (Human immunodeficiency virus type 1 group M subtype B, UniProt P12497); assay: In vitro integrase catalytic assay, strand transfer (ST); assay type: biochemical; conditions: 400 nM IN, 20 nM 32P-labeled pre-cleaved 19T/21B DNA, 37 °C, 2 h
Description: (§1) IN reactions were performed as previously described. […] Reactions were performed at 37 °C (2 h) and quenched by the addition of an equal volume of loading buffer (formamide containing 1% sodium dodecyl sulfate, 0.25% bromophenol blue, and xylene cyanol). Reaction products were separated in 16% polyacrylamide denaturing sequencing gels. Dried gels were visualized using a Typhoon 8600 instrument (GE Healthcare, Chicago, IL, USA). Densitometric analyses were performed using ImageQuant 5.1 software (GE Healthcare, Chicago, IL, USA). Data analyses (linear regression, 50% inhibitory concentration [IC50] determination, standard deviation [SD]) were performed from at least 3 independent determinations using Prism 5.0c software from GraphPad (La Jolla, CA, USA). To assay 3′-P inhibitory potency, reactions were carried out with [γ-^32P]-labeled full-length oligonucleotide 21T ([…]) annealed to the complementary oligonucleotide 21B ([…]). Formation of the shorter processed 19T products was monitored and quantified to assess enzyme performance and inhibitor potency. The ST reactions were carried out with the [γ-^32P]-labeled pre-cleaved oligonucleotide 19T ([…]) annealed to the complementary oligonucleotide 21B ([…]) and formation of integration products (longer and slower migrating than the starting 19T substrate) was monitored to assess enzyme performance and inhibitor potency.

HIV-1 IN = HIV-1 IN (Human immunodeficiency virus type 1 group M subtype B, UniProt P12497); assay: UV photo-crosslinking to IN with Western blot detection; assay type: binding; conditions: 15 (111 µM), IN (3.2 µM)
Description: Peptide 15 (111 µM), containing a photo-reactive Bpa group and a biotin linked to its amino terminus, was incubated for 2 h at 37 °C in the absence or the presence of IN (3.2 µM) before UV irradiation (5 min at […]). After adding 2 × 10 µL of loading buffer, samples were heat-denatured at 95 °C (5 min). Products were separated on 16% SDS-PAGE and transferred to a PVDF membrane using an iBlot system (Invitrogen, Carlsbad, CA, USA). […] Reading was performed using an Odyssey® Infrared Imaging System (LI-COR Biotechnology, Lincoln, NE, USA).

HIV-1 integrase (IN) [2] = target: T1, HIV-1 integrase (IN); assay: In vitro integrase catalytic assay, 3'-processing (3'-P); assay type: biochemical; conditions: 400 nM IN, 20 nM 32P-labeled 21T/21B DNA, 37 °C, 2 h
Description: as §1

Substance: Biotin-linker-BIHFRIG [Peptide 15]
- IC50 (HIV-1 integrase (IN) [1]): 2.3 ± 0.3 µM
- Covalent crosslinking to IN upon UV irradiation (HIV-1 IN): covalent adducts of 15 with IN
- IC50 (HIV-1 integrase (IN) [2]): 32 ± 7 µM

From publication PMC6222646, “HIV-1 Integrase-Targeted Short Peptides Derived from a Viral Protein R Sequence” (Molecules : A Journal of Synthetic Chemistry and Natural …, 2018)
